{
  "source": "patent US5444069A",
  "about": "“Imidazo-pyridine angiotensin II antagonists used to treat memory loss” (Warner-Lambert Company, priority 1994, dated 1995)",
  "key": {"[1]": {"molecular_target": "T1, AT2 receptor (rabbit uterus receptor preparations) (Oryctolagus cuniculus, UniProt G1T351)", "T1 construct": "cell membrane preparations derived from rabbit uterus and corpus luteum; from tissue; host or cells: rabbit uterus, cell membrane preparation", "T1 sequence (G1T351 1-363)": "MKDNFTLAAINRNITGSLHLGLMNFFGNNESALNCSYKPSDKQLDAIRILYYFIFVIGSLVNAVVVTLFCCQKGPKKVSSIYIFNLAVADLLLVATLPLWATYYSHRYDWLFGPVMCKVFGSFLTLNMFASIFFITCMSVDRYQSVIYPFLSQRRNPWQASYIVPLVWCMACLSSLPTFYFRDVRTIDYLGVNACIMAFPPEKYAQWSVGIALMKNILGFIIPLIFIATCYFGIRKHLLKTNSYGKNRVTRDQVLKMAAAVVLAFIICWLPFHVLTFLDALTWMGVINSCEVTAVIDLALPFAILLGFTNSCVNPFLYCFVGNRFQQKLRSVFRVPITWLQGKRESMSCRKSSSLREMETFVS", "test": "displacement of 3H-angiotensin II from rabbit uterus receptor preparations", "type": "binding", "conditions": "read-out: IC50 Values in Rabbit Uterine Preparations", "text": "AT2 receptors are known to exist in organs of the female reproductive system. […] More specifically, AT2 receptors are densely located on granulosa cells in atretic follicles of the ovary."}, "[2]": {"molecular_target": "T2, AT2 receptor (whole rat brain) (Rattus norvegicus, UniProt P35351)", "T2 construct": "IC50 Values in whole Rat Brain Preparations; from tissue; host or cells: whole rat brain", "T2 sequence (P35351 1-363)": "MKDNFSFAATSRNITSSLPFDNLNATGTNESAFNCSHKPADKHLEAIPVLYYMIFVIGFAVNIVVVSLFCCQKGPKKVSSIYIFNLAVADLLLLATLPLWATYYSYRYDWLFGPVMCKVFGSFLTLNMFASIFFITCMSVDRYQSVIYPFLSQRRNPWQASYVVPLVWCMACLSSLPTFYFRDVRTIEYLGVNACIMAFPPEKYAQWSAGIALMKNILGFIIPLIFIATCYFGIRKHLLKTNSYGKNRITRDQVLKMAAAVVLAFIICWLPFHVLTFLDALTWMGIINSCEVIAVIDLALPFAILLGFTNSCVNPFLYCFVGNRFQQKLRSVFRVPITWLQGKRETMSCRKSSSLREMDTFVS", "test": "angiotensin II receptor binding in whole rat brain (DTT protocol)", "text": "Since receptor-specific binding in whole brain is low and is a mixture of two subtypes, an alternative protocol (Bennett and Snyder, Eur. J. Pharmacol., 67, 11-25) was used. This method includes DTT and thereby eliminates binding at AT1 receptors, thus-allowing evaluation of AT2 receptor events."}, "[3]": {"tested_on": "rat striatum acetylcholine (ACh)", "test": "effect on rat striatal acetylcholine (ACh) levels", "type": "in vivo", "conditions": "for ACh concentration, rat striatum: vehicle 61.0 ± 2.33; for ACh, rat striatum, time course: control 65.4 ± 2.47", "experimental": "ACh concentrations were determined as described below. Each\nResults were analyzed by a oneway"}, "[4]": {"tested_on": "angiotensin II receptors (AT1 and AT2), rat brain regions", "test": "displacement of 125I-angiotensin II from receptor preparations of rat brain regions", "type": "binding", "quoted_text": "The concentration of all three antagonist compounds in these experiments is 1 μM (above the maximal effect concentration)."}, "[5]": {"tested_on": "angiotensin II receptors (AT1/AT2) of corpus luteum", "test": "inhibition of 125I-angiotensin II binding, corpus luteum", "design": "species or system rabbit", "conditions": "1 μM; 125I-angiotensin II; data from Warner-Lambert Co."}, "[6]": {"test": "estrous cycles in the mature female rat", "type": "in vivo", "conditions": "for Length of cycles: Pre Rx 4; for Number of cycles observed: Pre Rx 10", "experimental": "Female rats underwent vaginal smearing every morning for 5 weeks; rats with regular 4-day cycles (proestrus, estrus, metestrus, diestrus) were chosen for further study. Groups of rats (n=5) were implanted with Alzet osmotic minipumps (Model 2ML2) containing Example 1 or vehicle on the afternoon of estrus (approximately 2 PM). Drug-treated animals received 30 mg/kg/day Example I for 14 days. Cycles were continually monitored throughout the treatment period and for an additional 20 to 22 days posttreatment.\nVehicle-treated animals continued to cycle in a 4-day pattern throughout the study."}, "[7]": {"tested_on": "angiotensin II receptors (AT1/AT2) of granulosa cell", "conditions": "cited from earlier work"}, "[8]": {"tested_on": "AT2 receptor, ovarian cells", "conditions": "Pucell et al., Endocrinology 1991; cited from earlier work"}, "[9]": {"tested_on": "rat hippocampus acetylcholine (ACh)", "test": "effect on rat hippocampal acetylcholine (ACh) levels", "conditions": "30 mg/kg IP, 0.5 h; ± SEM; vehicle 23.9 ± 2.39; * p < 0.05", "quoted_text": "Thirty minutes after dosing, the rats were sacrificed by exposure to microwave irradiation. […] Haloperidol (2 mg/kg, IP) provides a positive control.\ndosing ACh concentrations were determined as described below."}, "[10]": {"test": "effect on renal free water clearance in anesthetized dogs", "conditions": "for Free Water Clearance: predose -0.24 ± 0.05, mean ± SE", "quoted_text": "Dogs were anesthetized with sodium pentobarbital after an overnight fast. Animals were placed on a prewarmed surgical table, intubated and prepared for renal clearance experiments. Femoral arteries were cannulated for aortic blood pressure measurements and for blood sampling. A femoral vein was cannulated and used for the infusion of inulin. A left flank incision was made to expose the kidney and ureter. An electromagnetic flow probe was placed on the left renal artery and the left ureter was cannulated for urine collection. An intrarenal infusion of 5% dextrose in water (D5W, 50 μL/min) was administered throughout the protocol except during drug treatment intervals. A priming dose of 50 mL D5W containing 200 mg/kg insulin was administered to each dog via the femoral vein catheter and then followed by a sustained infusion of inulin in D5W (15 mg/mL, 0.075 mL/min/kg).\nA clearance consisted of a timed urine collection with a midpoint blood sample. […] These last two clearances were designated as postdose.\nPlasma and urinary electrolytes were determined with an ion selective electrode analyzer. Urine and plasma inulin concentrations were assayed using an anthrone colorimetric method (Davidson, et al, J. Lab and Clin. Med., 1963, 62, 351-356). Renal clearances and fractional excretion were calculated using standard formulas (Vander, Renal Physiology, 4th ed, pp 44-52 (1991))."}, "[11]": {"conditions": "10 mg/kg IP, 0.5 h, ± SEM, * p < 0.05"}},
  "note": "pIC50: −log10 of the molar value.",
  "data": [
    {"compound": "Cc1cc(Cn2cnc3c2C[C@@H](C(=O)O)N(C(=O)C(c2ccccc2)c2ccccc2)C3)ccc1N(C)C", "note": "[Example 1]", "values": [
      {"measurement": "pIC50", "setting": "[1]", "value": 7.68},
      {"measurement": "pIC50", "setting": "[2]", "value": 6.70},
      {"measurement": "ACh concentration, rat striatum", "setting": "[3]; 1 mg/kg IP, 0.5 h, ± SEM", "value": "57.9 ± 1.86", "unit": "nM/g"},
      {"measurement": "ACh concentration, rat striatum", "setting": "[3]; [11]", "value": "48.1 ± 0.99", "unit": "nM/g"},
      {"measurement": "ACh, rat striatum, time course", "setting": "[3]; [11]", "value": "37.6 ± 2.10", "unit": "nM/g"},
      {"measurement": "ACh, rat striatum, time course", "setting": "[3]; 10 mg/kg IP, 1.0 h, ± SEM, * p < 0.05", "value": "47.9 ± 2.24", "unit": "nM/g"},
      {"measurement": "ACh, rat striatum, time course", "setting": "[3]; 10 mg/kg IP, 3.0 h, ± SEM, * p < 0.05", "value": "50.2 ± 4.53", "unit": "nM/g"},
      {"measurement": "ACh, rat striatum, time course", "setting": "[3]; 10 mg/kg IP, 6.0 h, ± SEM", "value": "55.8 ± 4.28", "unit": "nM/g"},
      {"measurement": "ACh, rat striatum, time course", "setting": "[3]; 10 mg/kg IP, 24.0 h, ± SEM", "value": "61.3 ± 2.30", "unit": "nM/g"},
      {"measurement": "time of peak ACh lowering effect", "setting": "[3]; 10 mg/kg, IP", "value": 0.5, "unit": "h"},
      {"measurement": "time for ACh levels to return to control levels", "setting": "[3]; 10 mg/kg, IP, gradual return", "value": 24, "unit": "h"},
      {"measurement": "ACh, Striatum (Table V)", "setting": "[3]; 30 mg/kg IP, 0.5 h, ± SEM, vehicle 52.9 ± 1.72, * p < 0.05", "value": "39.7 ± 0.99", "unit": "nM/g"},
      {"measurement": "ACh concentration, rat striatum", "setting": "[3]; 30 mg/kg IP, 0.5 h, ± SEM, * p < 0.05", "value": "37.6 ± 2.10", "unit": "nM/g"},
      {"measurement": "ACh concentration, rat striatum", "setting": "[3]; 60 mg/kg IP, 0.5 h, ± SEM, * p < 0.05", "value": "41.1 ± 1.89", "unit": "nM/g"},
      {"measurement": "striatal ACh lowering compared with haloperidol (in words)", "setting": "[3]; IP, haloperidol 2 mg/kg", "value": "matched the efficacy of haloperidol"},
      {"measurement": "ACh content in brain tissues (in words)", "setting": "[3]; Tables IV, V and VI", "value": "lowers ACh content in brain tissues in a dose dependant and time dependant manner"},
      {"measurement": "displacement of 125I-angiotensin II in rat brain areas (in words)", "setting": "[4]; 1 μM per text, each area of brain examined", "value": "displace a fraction of the ^125 I-angiotensin II that is displaced by saralasin"},
      {"measurement": "125I-Angiotensin II Bound, Brain Stem", "setting": "[4]; rat brain stem, antagonist 10 μM, total 2124", "value": 1258, "unit": "cpm"},
      {"measurement": "125I-Angiotensin II Bound, Cerebellum", "setting": "[4]; rat cerebellum, antagonist 10 μM, total 571", "value": 446, "unit": "cpm"},
      {"measurement": "125I-Angiotensin II Bound, Cortex", "setting": "[4]; rat cortex, antagonist 10 μM, total 766", "value": 507, "unit": "cpm"},
      {"measurement": "125I-Angiotensin II Bound, Cortical Neurons", "setting": "[4]; rat cortical neurons, antagonist 10 μM, total 2647", "value": 2118, "unit": "cpm"},
      {"measurement": "125I-Angiotensin II Bound, Striatal Membrane", "setting": "[4]; rat striatal membrane, antagonist 10 μM, total 2462", "value": 1838, "unit": "cpm"},
      {"measurement": "% Inhibition with 1 μM Antagonist, Corpus luteum", "setting": "[5]", "value": 3, "unit": "%"},
      {"measurement": "cyclicity during treatment (in words)", "setting": "[6]; 30 mg/kg/day, 14 days", "value": "acyclic during the 14-day treatment interval"},
      {"measurement": "cyclicity posttreatment (in words)", "setting": "[6]; 20 to 22 days posttreatment", "value": "resumed cycling during the posttreatment observation period"},
      {"measurement": "Length of cycles", "setting": "[6]; Post Rx (20 to 22 days posttreatment), vehicle Post Rx 4", "value": 3.9, "unit": "days"},
      {"measurement": "Number of cycles observed", "setting": "[6]; Post Rx (20 to 22 days posttreatment), vehicle Post Rx 5", "value": 4},
      {"measurement": "Length of cycles", "setting": "[6]; Rx: 30 mg/kg/day, 14 days, osmotic minipump, vehicle Rx 4.5", "value": 14.4, "unit": "days"},
      {"measurement": "Number of cycles observed", "setting": "[6]; Rx: 30 mg/kg/day, 14 days, osmotic minipump, vehicle Rx 3", "value": 1},
      {"measurement": "effect on menstrual cycle (in words)", "setting": "[6]; reproductive studies in rats", "value": "interrupts the menstrual cycle"},
      {"measurement": "% Inhibition with 1 μM Antagonist, Granulosa cell", "setting": "[7]; 1 μM, 125I-angiotensin II, adapted from Pucell et al., Endocrinology 1991", "value": 97, "unit": "%"},
      {"measurement": "displacement of 125I-angiotensin II, granulosa cells (in words)", "setting": "[7]; Table IX", "value": "displaces nearly all of the 125I-angiotensin II"},
      {"measurement": "AT2 antagonism in ovarian cells", "setting": "[8]", "value": "AT2 antagonistic properties"},
      {"measurement": "ACh, Hippocampus (Table V)", "setting": "[9]", "value": "15.1 ± 1.55", "unit": "nM/g"},
      {"measurement": "Free Water Clearance, Change from Predose", "setting": "[10]; 60 min, dose 3 intrarenal", "value": "+54%"},
      {"measurement": "Free Water Clearance, Change from Predose", "setting": "[10]; 90 min, dose 30 intrarenal", "value": "+150%"},
      {"measurement": "Free Water Clearance", "setting": "[10]; 90 min, dose 30 intrarenal, * p = 0.097 vs vehicle", "value": "+0.11 ± 0.19 mL/min"},
      {"measurement": "Free Water Clearance, Change from Predose", "setting": "[10]; 120 min, dose 300 intrarenal", "value": "+370%"},
      {"measurement": "Free Water Clearance", "setting": "[10]; 120 min, dose 300 intrarenal, ** p = 0.015 vs vehicle", "value": "+0.64 ± 0.30 mL/min"},
      {"measurement": "Free Water Clearance", "setting": "[10]; 150 min, postdose (dose 0, after washout), *** p = 0.002 vs vehicle", "value": "+0.29 ± 0.10 mL/min"},
      {"measurement": "Free water clearance, increase from predose levels", "setting": "[10]; intrarenal infusion, cumulative doses 3, 30 and 300 μg/kg/min", "value": "up to 370%"},
      {"measurement": "free water clearance (in words)", "setting": "[10]; versus vehicle control", "value": "increase in free water clearance that is dose dependant and statistically significant when compared to the vehicle control"}
    ]}
  ]
}
